Laboratory results from US20090227563A1, “HERBICIDAL COMPOSITIONS HAVING IMPROVED EFFECT” (Bayer CropScience AG, priority 2005, published 2009).
Several values for one entry are separate records, joined by “and”; a condition that tells them apart may be missing. Equal values may be shown once.

Tests used:
Format in all cases: in vivo
[1] = system: Alopecurus myosuroides (ALOMY); assay: Glasshouse trial on activity boost, post-emergence spraying, visual rating
Method: (§1) Seeds of monocot and dicot weeds and crop plants are sown in sandy loam soil in wood fibre pots or in plastic pots, and are covered with soil and cultivated under good growth conditions in the glasshouse and also, during the vegetation period, outdoors outside the glasshouse. 2-3 weeks after sowing, the trial plants are treated at the one- to three-leaf stage. The test compounds, formulated as wettable powders (WP) or liquids (EC), are applied by spraying to the plants and the soil surface in various doses, with a water application rate of 300 l/ha (converted) and with the addition of penetrants (0.2% to 0.4%) and where appropriate an ammonium salt. After the trial plants had stood in the glasshouse for about 3 to 4 weeks under optimum growth conditions, the activity of the products was rated visually in comparison to untreated controls (activity in %, i.e. 0%=no activity or as control, 100%=all plants died).
(§2) For rapeseed oil methyl ester (RME) the following tables specify concentration in % a.i. by volume for ammonium sulphate (AMS) in g/l in the spray liquor.
(§3) ALOMY=Alopecurus myosuroides AVEFA=Avena fatua LOLMU=Lolium multiflorum LOLRI=Lolium rigidum
(§4) ALOMY=Alopecurus myosuroides AVEFA=Avena fatua LOLMU=Lolium multiflorum SETVI=Setaria viridis
(§5) ALOMY=Alopecurus myosuroides AVEFA=Avena fatua LOLMU=Lolium multiflorum SETVI=Setaria viridis BROER=Bromus erectus

[2] = system: Avena fatua (AVEFA); assay: as above
Method: as §1, §2, §3, §4, §5

[3] = system: APESV; assay: as above; settings: 5 g/ha
Method: as §1

[4] = system: LOLME; assay: as above; settings: 5 g/ha
Method: as §1

[5] = system: Bromus erectus (BROER); assay: as above; settings: 5 g/ha
Method: as §1, §5

[6] = system: Agropyron repens (AGRRE); assay: Plot trials (about 10 m2, 9 trials), post-emergence treatment; settings: 5 g/ha, sum of all trials
Method: (§6) In plots measuring approximately 10 m^2, in 9 trials, post-emergence treatments were carried out in 2-3 repetitions with compound (I-1-c-1). The weed population was the natural population and/or a sown population specifically geared to the objective. The active ingredient (I-1-c-1) was delivered as an EC formulation at the stated application rates with a penetrant of the formula (III-c-1) at a concentration of 0.3 g/l in 300 l of water, as a tank mix. In the elements of the trial with ammonium sulphate (AMS) the salt was added at 1 g/l to the spray liquor. Evaluation was made on the day of maximum activity. The activities reported in Table 5 are those obtained over the sum of all the trials.
(§7) AGRRE=Agropyron repens ALOMY=Alopecurus myosuroides AVEFA=Avena fatua

[7] = system: Alopecurus myosuroides (ALOMY); assay: as above; settings: 5 g/ha, sum of all trials
Method: as §6, §7

[8] = system: Avena fatua (AVEFA); assay: as above; settings: 5 g/ha, sum of all trials
Method: as §6, §7

[9] = system: Lolium multiflorum (LOLMU); assay: Glasshouse trial on activity boost, post-emergence spraying, visual rating
Method: as §1, §2, §3, §4

[10] = system: Lolium rigidum (LOLRI); assay: as above
Method: as §1, §2, §3

[11] = system: Setaria viridis (SETVI); assay: as above
Method: as §1, §2, §4

[12] = 5 g/ha, Genapol LRO (0.33%) + AMS (3.3 g/l)
[13] = Genapol LRO (0.33%) + AMS (3.3 g/l)
[14] = (III-c-1) (0.3 g/l) + AMS (1 g/l)
[15] = 50 g/ha, RME (0.25%) + AMS (6.6 g/l)
[16] = 25 g/ha, RME (0.25%) + AMS (3.3 g/l)
[17] = 50 g/ha, RME (0.25%) + AMS (3.3 g/l)
[18] = 12.5 g/ha, RME (0.25%) + AMS (3.3 g/l)

`CCOC(=O)OC1=C(c2c(CC)cc(Cl)cc2OC)C(=O)NC12CCC(OC)CC2` (centres unmarked) [I-1-c-1] was tested, and the Activity ([1]; 5 g/ha, Genapol LRO (0.33%)) was 73%, the Activity [1, 12] was 99% and the Activity ([2]; 5 g/ha, Genapol LRO (0.33%)) was 75%. It also gave an Activity [2, 12] of 100%, an Activity ([3]; Genapol LRO (0.33%)) of 93% and an Activity [3, 13] of 97%. The Activity ([4]; Genapol LRO (0.33%)) was 86%, the Activity [4, 13] was 97% and the Activity ([5]; Genapol LRO (0.33%)) was 73%. It also gave an Activity [5, 13] of 97%, an Activity [6, 14] of 90% and an Activity ([6]; (III-c-1) (0.3 g/l)) of 80%. For the same compound, the Activity [7, 14] was 72%, the Activity ([7]; (III-c-1) (0.3 g/l)) was 67% and the Activity [8, 14] was 90%. It also gave an Activity ([8]; (III-c-1) (0.3 g/l)) of 80%.
In the case of `CCc1cc(-c2ccc(Cl)cc2)cc(C)c1C1=C(O)C2(CCC(OC)CC2)OC1=O` (centres unmarked) [I-2-a-1], the Activity ([1]; 50 g/ha, RME (0.25%)) was 30%, the Activity [1, 15] was 70% and the Activity ([1]; 100 g/ha, RME (0.25%)) was 30%. For the same compound, the Activity ([1]; 100 g/ha, RME (0.25%) + AMS (6.6 g/l)) was 70%, the Activity ([9]; 25 g/ha, RME (0.25%)) was 30% and the Activity ([9]; 50 g/ha, RME (0.25%)) was 70%. The Activity ([10]; 25 g/ha, RME (0.25%)) was 20%, the Activity ([10]; 50 g/ha, RME (0.25%)) was 40% and the Activity [10, 15] was 80% and 40%.
`CC1=CC(=O)C(c2c(C)cc(C)cc2C)C(=O)O1` (centres unmarked) [I-4-a-1] showed an Activity ([11]; 25 g/ha, RME (0.25%)) of 0%, an Activity [11, 16] of 20% and an Activity ([11]; 50 g/ha, RME (0.25%)) of 0%. For the same compound, the Activity [11, 17] was 90%, the Activity ([11]; 100 g/ha, RME (0.25%)) was 0% and the Activity ([11]; 100 g/ha, RME (0.25%) + AMS (3.3 g/l)) was 90%.
With `CCc1cc(C)cc(C)c1C1C(=O)CC2(CCCCC2)C1=O` (centres unmarked) [I-6-a-1] the Activity ([11]; 12.5 g/ha, RME (0.25%)) was 0%, the Activity [11, 18] was 25% and the Activity ([11]; 25 g/ha, RME (0.25%)) was 15%. The Activity [11, 16] was 90%, the Activity ([11]; 50 g/ha, RME (0.25%)) was 25% and the Activity [11, 17] was 90%.
Compound `CCc1cc(C)cc(CC)c1C1C(=O)[C@H]2CCCC[C@@H]2C1=O` [I-6-a-2] has an Activity ([1]; 12.5 g/ha, RME (0.25%)) of 10%, an Activity [1, 18] of 75% and an Activity ([1]; 25 g/ha, RME (0.25%)) of 30%. It also gave an Activity [1, 16] of 93%, an Activity ([2]; 12.5 g/ha, RME (0.25%)) of 10% and an Activity [2, 18] of 93%. It also gave an Activity ([2]; 25 g/ha, RME (0.25%)) of 35%, an Activity [2, 16] of 99% and an Activity ([9]; 12.5 g/ha, RME (0.25%)) of 5%. It also gave an Activity [9, 18] of 97%, an Activity ([9]; 25 g/ha, RME (0.25%)) of 20% and an Activity [9, 16] of 100%.
`CCc1cc(Cl)cc(OC)c1-c1c(O)n2n(c1=O)CCCC2` [I-8-a-1] was tested, and the Activity ([1]; 12.5 g/ha, RME (0.25%)) was 5%, the Activity [1, 18] was 50% and the Activity ([1]; 25 g/ha, RME (0.25%)) was 50%. It also gave an Activity [1, 16] of 70%, an Activity ([2]; 12.5 g/ha, RME (0.25%)) of 30% and an Activity [2, 18] of 70%. For the same compound, the Activity ([2]; 25 g/ha, RME (0.25%)) was 40%, the Activity [2, 16] was 80% and the Activity ([9]; 12.5 g/ha, RME (0.25%)) was 10%. The Activity [9, 18] was 70%, the Activity ([9]; 25 g/ha, RME (0.25%)) was 80% and the Activity [9, 16] was 95%.
`CCc1cc(C)cc(CC)c1-c1c(OC(=O)C(C)(C)C)n2n(c1=O)CCOCC2` [I-8-b-1] gave an Activity ([1]; 25 g/ha, RME (0.25%)) of 20%, an Activity ([1]; 25 g/ha, RME (0.25%) + AMS (0.33 g/l)) of 70% and an Activity ([1]; 25 g/ha, RME (0.25%) + AMS (1 g/l)) of 50%. It also gave an Activity [1, 16] of 80%, an Activity ([1]; 50 g/ha, RME (0.25%)) of 90% and an Activity [1, 17] of 95%. For the same compound, the Activity ([2]; 25 g/ha, RME (0.25%)) was 30%, the Activity [2, 16] was 80% and the Activity ([2]; 50 g/ha, RME (0.25%)) was 70%. For the same compound, the Activity ([2]; 50 g/ha, RME (0.25%) + AMS (0.33 g/l)) was 90%, the Activity ([2]; 50 g/ha, RME (0.25%) + AMS (1 g/l)) was 95% and the Activity [2, 17] was 97%. It also gave an Activity ([9]; 25 g/ha, RME (0.25%)) of 60%, an Activity [9, 16] of 93% and an Activity ([9]; 50 g/ha, RME (0.25%)) of 97%. It also gave an Activity [9, 17] of 100%.
